Measured values reported in publication PMC10478824, “Development of FAPI Tetramers to Improve Tumor Uptake and Efficacy of FAPI Radioligand Therapy” (Journal of Nuclear Medicine, 2023).

Legend:
[1] = In vitro stability in phosphate-buffered saline and fetal bovine serum (radio-HPLC); assay type: in vitro ADME; conditions: 4 h incubation in phosphate-buffered saline and fetal bovine serum
HT-1080-FAP cells = assay: Cell uptake and blocking experiment; assay type: cell-based, human; conditions: 120 min
Method: (§1) A human fibrosarcoma cell line was stably transfected with FAP (HT-1080-FAP) and cultured, as previously described ([15]). A human glioblastoma cell line (U87MG, from the Chinese National Infrastructure of Cell Line Resource) was cultured in Dulbecco modified Eagle medium (Thermo Fischer Scientific) supplemented with 10% fetal bovine serum (Thermo Fisher Scientific). HT-1080-FAP cells were seeded in 24-well plates using RPMI 1640 medium with 10% fetal bovine serum, and the medium was replaced with fresh medium without fetal bovine serum when the cells reached 80%–90% density. ^68Ga-FAPI-46, ^68Ga-DOTA-2P(FAPI)2, ^68Ga-DOTA-4P(FAPI)4, or ^68Ga-DOTA-4P(FAPI)4 with 11.3 nmol of unlabeled FAPI-46 (for the blocking experiment) were added to the 24-well plates and incubated for 60, 90, and 120 min. For the competitive cell-binding assay, a gradient concentration (5.6 × 10^−13 to 10^−5 M) of FAPI-46, DOTA-2P(FAPI)2, or DOTA-4P(FAPI)4 was added to the cells and incubated with ^68Ga-FAPI-46 for 60 min. Similarly, a gradient concentration (5.4 × 10^−13 to 10^−5 M) of NOTA-2P(FAPI)2 or NOTA-4P(FAPI)4 was added to the cells and incubated with ^68Ga-FAPI-46 for 60 min. After each step, the cells were washed twice with phosphate-buffered saline (1 mL) and lysed with 1 M NaOH (0.5 mL). The radioactivity (counts per minute) was determined with a γ-counter (WIZARD^2 2480; PerkinElmer Inc.). All experiments were independently repeated 3 times. The 50% inhibitory concentrations were determined by fitting a nonlinear regression model to the data using Prism software, version 8 (GraphPad Software Inc.).

HT-1080-FAP tumors = assay: Small-animal PET in HT-1080-FAP tumor-bearing mice; assay type: in vivo
Method: (§2) All animal experimental procedures were approved by the Animal Care and Ethics Committee of Xiamen University and performed in accordance with the Guidelines for the Care and Use of Animals of the Xiamen University Laboratory Animal Center. For in vivo experiments, 6-wk-old BALB/c nude mice (Beijing Vital River Laboratory Animal Technology Co., Ltd.) were subcutaneously inoculated with HT-1080-FAP or U87 cells (5 × 10^6 in 100 μL of phosphate-buffered saline) in the right shoulder.
(§3) Dynamic PET, static PET (with or without competition), and SPECT scans with radiolabeled monomeric, dimeric, and tetrameric FAPIs were performed on HT-1080-FAP tumor–bearing mice for pharmacokinetic evaluation. Additionally, static PET with ^68Ga-labeled monomeric, dimeric, and tetrameric FAPIs was performed and compared in U87MG tumor–bearing mice.
(§4) Approximately 7.4 MBq of ^68Ga-DOTA-4P(FAPI)4 was intravenously injected into HT-1080-FAP tumor–bearing mice (n = 3) for the 60-min dynamic PET. For multiple-time-point static PET (0.5, 1, 2, and 4 h after injection), 7.4 MBq of ^68Ga-FAPI-46, ^68Ga-DOTA-2P(FAPI)2, or ^68Ga-DOTA-4P(FAPI)4 were injected into HT-1080-FAP and U87MG tumor–bearing mice (3/group). For longer-term observation, HT-1080-FAP tumor–bearing mice were intravenously injected with 7.4 MBq of ^64Cu-NOTA-2P(FAPI)2 or ^64Cu-NOTA-4P(FAPI)4 (3/group). For the in vivo blocking experiment, PET imaging was performed 1 h after the simultaneous administration of 30 nmol of unlabeled FAPI-46 and 7.4 MBq of ^68Ga-DOTA-4P(FAPI)4.

U87MG tumors = assay: Small-animal static PET in U87MG tumor-bearing mice; assay type: in vivo
Method: as §2, §3
as §4, with “For the in vivo blocking experiment, PET imaging was performed 1 h after the simultaneous administration of 30 nmol of unlabeled FAPI-46 and 7.4 MBq of ^68Ga-DOTA-4P(FAPI)4.” left out

[2] = biological target: T1, FAP (FAP-positive HT-1080-FAP cells) (Homo sapiens, UniProt Q12884); assay: Competitive cell-binding assay against ^68Ga-FAPI-46; conditions: competition with ^68Ga-FAPI-46, 60 min, read-out: 50% inhibitory concentration
T1 construct: expressed in transfected cells; host or cells: HT-1080 human fibrosarcoma cells, stably transfected (HT-1080-FAP)
T1 sequence (Q12884 1-760): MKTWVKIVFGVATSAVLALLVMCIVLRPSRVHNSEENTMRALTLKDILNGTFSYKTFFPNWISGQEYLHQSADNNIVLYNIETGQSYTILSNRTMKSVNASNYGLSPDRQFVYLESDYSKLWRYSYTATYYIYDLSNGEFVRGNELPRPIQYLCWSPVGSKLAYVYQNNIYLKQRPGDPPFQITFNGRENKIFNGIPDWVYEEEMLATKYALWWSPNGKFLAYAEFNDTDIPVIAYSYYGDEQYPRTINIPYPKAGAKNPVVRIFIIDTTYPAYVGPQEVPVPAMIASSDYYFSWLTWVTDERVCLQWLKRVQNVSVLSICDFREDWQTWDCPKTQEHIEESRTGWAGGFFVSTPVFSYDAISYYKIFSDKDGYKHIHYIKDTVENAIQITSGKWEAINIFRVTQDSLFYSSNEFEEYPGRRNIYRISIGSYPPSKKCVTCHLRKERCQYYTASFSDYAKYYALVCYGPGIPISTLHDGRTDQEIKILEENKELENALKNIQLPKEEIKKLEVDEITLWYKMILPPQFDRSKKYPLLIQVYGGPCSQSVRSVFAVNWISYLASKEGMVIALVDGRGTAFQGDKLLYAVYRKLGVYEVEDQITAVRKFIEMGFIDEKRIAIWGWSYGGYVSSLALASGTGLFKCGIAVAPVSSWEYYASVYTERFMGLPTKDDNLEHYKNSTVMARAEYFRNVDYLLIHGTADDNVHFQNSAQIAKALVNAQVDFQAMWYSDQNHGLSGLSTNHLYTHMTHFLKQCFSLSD
Method: as §1, with “Similarly, a gradient concentration (5.4 × 10^−13 to 10^−5 M) of NOTA-2P(FAPI)2 or NOTA-4P(FAPI)4 was added to the cells and incubated with ^68Ga-FAPI-46 for 60 min. After each step, the cells were washed twice with phosphate-buffered saline (1 mL) and lysed with 1 M NaOH (0.5 mL).” left out, “All experiments were independently repeated 3 times.” left out

SMILES	in vitro stability (demetallation / free radioactivity) [1]	in vitro stability (demetallation / free radioactivity) ([1]; listed as 68Ga-DOTA-4P[FAPI]4)	cell uptake (HT-1080-FAP cells)	reduction of cell uptake by blocking (HT-1080-FAP cells; unlabeled FAPI-46) [%]	cell uptake with blocking (HT-1080-FAP cells; with 11.3 nmol unlabeled FAPI-46)	elimination route (HT-1080-FAP tumors; HT-1080-FAP tumor-bearing mice, PET)	reduction in tumor uptake by blocking (HT-1080-FAP tumors; HT-1080-FAP tumors, 1 h after injection, unlabeled FAPI-46) [%]	tumor uptake SUVmean without blocking (HT-1080-FAP tumors; HT-1080-FAP tumors, PET, 1 h after injection)	tumor uptake SUVmean with blocking (HT-1080-FAP tumors; HT-1080-FAP tumors, PET, 1 h after injection, coinjection of 30 nmol unlabeled FAPI-46)	tumor uptake SUVmean (HT-1080-FAP tumors; HT-1080-FAP tumors, PET, 4 h after injection)	course of tumor uptake over time (HT-1080-FAP tumors; HT-1080-FAP tumors, static PET up to 4 h after injection)	washout from tumor (U87MG tumors; PET 0.5-4 h after injection)	tumor uptake SUVmean (U87MG tumors; PET, 1 h after injection)	IC50 [2] [nM]
CN(CCCN1CCN(C(=O)COCCOCCOCCNC(=O)CCC(=O)NCCCC[C@H](NC(=O)CCC(=O)NCCOCCOCCOCC(=O)N2CCN(CCCN(C)c3ccc4nccc(C(=O)NCC(=O)N5CC(F)(F)C[C@H]5C#N)c4c3)CC2)C(=O)NCCCC[C@H](NC(=O)[C@H](CCCCNC(=O)CN2CCN(CC(=O)[O-])CCN(CC(=O)[O-])CCN(CC(=O)[O-])CC2)NC(=O)CCC(=O)NCCOCCOCCOCC(=O)N2CCN(CCCN(C)c3ccc4nccc(C(=O)NCC(=O)N5CC(F)(F)C[C@H]5C#N)c4c3)CC2)C(=O)NCCOCCOCCOCC(=O)N2CCN(CCCN(C)c3ccc4nccc(C(=O)NCC(=O)N5CC(F)(F)C[C@H]5C#N)c4c3)CC2)CC1)c1ccc2nccc(C(=O)NCC(=O)N3CC(F)(F)C[C@H]3C#N)c2c1.[68Ga+3] [^68Ga-DOTA-4P(FAPI)4]	highly stable	neither significant demetallation nor free radioactivity was observed	57.98% ± 0.27%	97	1.79% ± 0.97%	eliminated predominantly through the kidneys and bladder	92	1.87 ± 0.08	0.16 ± 0.03	1.99 ± 0.09	tumor uptake remained constant up to 4 h after injection	minimal	0.72 ± 0.02	
CN(CCCN1CCN(C(=O)CN2CCN(CC(=O)O)CCN(CC(=O)O)CCN(CC(=O)O)CC2)CC1)c1ccc2nccc(C(=O)NCC(=O)N3CC(F)(F)C[C@H]3C#N)c2c1 [FAPI-46, reference compound]														11.4
